Results reported in ChEMBL document CHEMBL5131391, “One-pot three-component synthesis of novel pyrazolo[3,4-b]pyridines as potent antileukemic agents” (Eur J Med Chem, 2022).

How the values were obtained:
Type in all cases: functional
K562 [1] = experiment: Antiproliferative activity against human K562 cells assessed as reduction in cell viability incubated for 72 hrs by resazurin dye based assay; conditions: K562, 72 h
RPMI-8226 = experiment: Antiproliferative activity against human RPMI-8226 cells assessed as growth inhibition at 10 uM measured after 48 hrs by NCI protocol based SRB assay relative to control; conditions: read-out: GI
CCRF-CEM = experiment: Antiproliferative activity against human CCRF-CEM cells assessed as growth inhibition at 10 uM measured after 48 hrs by NCI protocol based SRB assay relative to control; conditions: read-out: GI
A549 = experiment: Antiproliferative activity against human A549 cells assessed as growth inhibition at 10 uM measured after 48 hrs by NCI protocol based SRB assay relative to control; conditions: read-out: GI
NCI-H322M = experiment: Antiproliferative activity against human NCI-H322M cells assessed as growth inhibition at 10 uM measured after 48 hrs by NCI protocol based SRB assay relative to control; conditions: read-out: GI
NCI-H226 = experiment: Antiproliferative activity against human NCI-H226 cells assessed as growth inhibition at 10 uM measured after 48 hrs by NCI protocol based SRB assay relative to control; conditions: read-out: GI
NCI-H23 = experiment: Antiproliferative activity against human NCI-H23 cells assessed as growth inhibition at 10 uM measured after 48 hrs by NCI protocol based SRB assay relative to control; conditions: read-out: GI
HCT-15 = experiment: Antiproliferative activity against human HCT-15 cells assessed as growth inhibition at 10 uM measured after 48 hrs by NCI protocol based SRB assay relative to control; conditions: read-out: GI
SF-539 = experiment: Antiproliferative activity against human SF-539 cells assessed as growth inhibition at 10 uM measured after 48 hrs by NCI protocol based SRB assay relative to control; conditions: read-out: GI
SF-295 = experiment: Antiproliferative activity against human SF-295 cells assessed as growth inhibition at 10 uM measured after 48 hrs by NCI protocol based SRB assay relative to control; conditions: read-out: GI
SF-268 = experiment: Antiproliferative activity against human SF-268 cells assessed as growth inhibition at 10 uM measured after 48 hrs by NCI protocol based SRB assay relative to control; conditions: read-out: GI
SNB-75 = experiment: Antiproliferative activity against human SNB-75 cells assessed as growth inhibition at 10 uM measured after 48 hrs by NCI protocol based SRB assay relative to control; conditions: read-out: GI
SNB-19 = experiment: Antiproliferative activity against human SNB-19 cells assessed as growth inhibition at 10 uM measured after 48 hrs by NCI protocol based SRB assay relative to control; conditions: read-out: GI
U-251 = experiment: Antiproliferative activity against human U-251 cells assessed as growth inhibition at 10 uM measured after 48 hrs by NCI protocol based SRB assay relative to control; conditions: read-out: GI
LOX IMVI = experiment: Antiproliferative activity against human LOX IMVI cells assessed as growth inhibition at 10 uM measured after 48 hrs by NCI protocol based SRB assay relative to control; conditions: read-out: GI
SK-MEL-2 = experiment: Antiproliferative activity against human SK-MEL-2 cells assessed as growth inhibition at 10 uM measured after 48 hrs by NCI protocol based SRB assay relative to control; conditions: read-out: GI
SK-MEL-5 = experiment: Antiproliferative activity against human SK-MEL-5 cells assessed as growth inhibition at 10 uM measured after 48 hrs by NCI protocol based SRB assay relative to control; conditions: read-out: GI
UACC-62 = experiment: Antiproliferative activity against human UACC-62 cells assessed as growth inhibition at 10 uM measured after 48 hrs by NCI protocol based SRB assay relative to control; conditions: read-out: GI
IGROV-1 = experiment: Antiproliferative activity against human IGROV-1 cells assessed as growth inhibition at 10 uM measured after 48 hrs by NCI protocol based SRB assay relative to control; conditions: read-out: GI
OVCAR-3 = experiment: Antiproliferative activity against human OVCAR-3 cells assessed as growth inhibition at 10 uM measured after 48 hrs by NCI protocol based SRB assay relative to control; conditions: read-out: GI
NCI/ADR-RES = experiment: Antiproliferative activity against human NCl/ADR-RES cells assessed as growth inhibition at 10 uM measured after 48 hrs by NCI protocol based SRB assay relative to control; conditions: read-out: GI
SN12C = experiment: Antiproliferative activity against human SN12C cells assessed as growth inhibition at 10 uM measured after 48 hrs by NCI protocol based SRB assay relative to control; conditions: read-out: GI
ACHN = experiment: Antiproliferative activity against human ACHN cells assessed as growth inhibition at 10 uM measured after 48 hrs by NCI protocol based SRB assay relative to control; conditions: read-out: GI
CAKI-1 = experiment: Antiproliferative activity against human CAKI-1 cells assessed as growth inhibition at 10 uM measured after 48 hrs by NCI protocol based SRB assay relative to control; conditions: read-out: GI
A498 = experiment: Antiproliferative activity against human A498 cells assessed as growth inhibition at 10 uM measured after 48 hrs by NCI protocol based SRB assay relative to control; conditions: read-out: GI
TK-10 = experiment: Antiproliferative activity against human TK-10 cells assessed as growth inhibition at 10 uM measured after 48 hrs by NCI protocol based SRB assay relative to control; conditions: read-out: GI
UO-31 = experiment: Antiproliferative activity against human UO-31 cells assessed as growth inhibition at 10 uM measured after 48 hrs by NCI protocol based SRB assay relative to control; conditions: read-out: GI
PC-3 = experiment: Antiproliferative activity against human PC-3 cells assessed as growth inhibition at 10 uM measured after 48 hrs by NCI protocol based SRB assay relative to control; conditions: read-out: GI
DU-145 = experiment: Antiproliferative activity against human DU-145 cells assessed as growth inhibition at 10 uM measured after 48 hrs by NCI protocol based SRB assay relative to control; conditions: read-out: GI
MCF7 = experiment: Antiproliferative activity against human MCF7 cells assessed as growth inhibition at 10 uM measured after 48 hrs by NCI protocol based SRB assay relative to control; conditions: read-out: GI
T47D = experiment: Antiproliferative activity against human T47D cells assessed as growth inhibition at 10 uM measured after 48 hrs by NCI protocol based SRB assay relative to control; conditions: read-out: GI
BT-549 = experiment: Antiproliferative activity against human BT-549 cells assessed as growth inhibition at 10 uM measured after 48 hrs by NCI protocol based SRB assay relative to control; conditions: read-out: GI
MDA-MB-468 = experiment: Antiproliferative activity against human MDA-MB-468 cells assessed as growth inhibition at 10 uM measured after 48 hrs by NCI protocol based SRB assay relative to control; conditions: read-out: GI
MV4-11 = experiment: Antiproliferative activity against human MV4-11 cells assessed as reduction in cell viability incubated for 72 hrs by resazurin dye based assay; conditions: MV4-11, 72 h
HL-60(TB) = experiment: Antiproliferative activity against human HL-60(TB) cells assessed as growth inhibition at 10 uM measured after 48 hrs by NCI protocol based SRB assay relative to control; conditions: read-out: GI
K562 [2] = experiment: Antiproliferative activity against human K562 cells assessed as growth inhibition at 10 uM measured after 48 hrs by NCI protocol based SRB assay relative to control; conditions: read-out: GI

| Compound | IC50 (K562 [1]) [µM] | inhibition of growth at 10 µM (RPMI-8226) [%] | inhibition of growth at 10 µM (CCRF-CEM) [%] | inhibition of growth at 10 µM (A549) [%] | inhibition of growth at 10 µM (NCI-H322M) [%] | inhibition of growth at 10 µM (NCI-H226) [%] | inhibition of growth at 10 µM (HCT-15) [%] | inhibition of growth at 10 µM (SF-539) [%] | inhibition of growth at 10 µM (SF-268) [%] | inhibition of growth at 10 µM (SNB-75) [%] | inhibition of growth at 10 µM (U-251) [%] | inhibition of growth at 10 µM (SK-MEL-5) [%] | inhibition of growth at 10 µM (UACC-62) [%] | inhibition of growth at 10 µM (IGROV-1) [%] | inhibition of growth at 10 µM (OVCAR-3) [%] | inhibition of growth at 10 µM (NCI/ADR-RES) [%] | inhibition of growth at 10 µM (SN12C) [%] | inhibition of growth at 10 µM (ACHN) [%] | inhibition of growth at 10 µM (CAKI-1) [%] | inhibition of growth at 10 µM (TK-10) [%] | also measured |
| --- | --- | --- | --- | --- | --- | --- | --- | --- | --- | --- | --- | --- | --- | --- | --- | --- | --- | --- | --- | --- | --- |
| N#Cc1c(-c2ccccc2)nc2c(c(-c3ccccc3)nn2-c2ccccc2)c1-c1ccc(O)cc1 | 9.6 | 87 | 78 | 59 | 34 | 46 | 66 | 77 | 45 | 67 | 76 | 42 | 39 | 29 | 46 | 30 | 39 | 58 | 48 | 79 | inhibition of growth at 10 µM (NCI-H23): 56%; inhibition of growth at 10 µM (SF-295): 143%; inhibition of growth at 10 µM (SNB-19): 61%; inhibition of growth at 10 µM (LOX IMVI): 148%; inhibition of growth at 10 µM (SK-MEL-2): 28%; inhibition of growth at 10 µM (A498): 101%; inhibition of growth at 10 µM (UO-31): 73%; inhibition of growth at 10 µM (PC-3): 96%; inhibition of growth at 10 µM (DU-145): 51%; inhibition of growth at 10 µM (MCF7): 86%; inhibition of growth at 10 µM (T47D): 65%; inhibition of growth at 10 µM (BT-549): 41%; inhibition of growth at 10 µM (MDA-MB-468): 62%; IC50 (MV4-11): 26.1 µM |
| COc1cc(-c2c(C#N)c(-c3ccccc3)nc3c2c(-c2ccccc2)nn3-c2ccccc2)ccc1O | > 50 | 40 | 31 | 48 | 17 | 24 | 30 | 18 | 27 | 20 | 31 | 21 | 12 | 13 | 23 | 22 | 32 | 13 | 37 | 42 | inhibition of growth at 10 µM (NCI-H23): 26%; inhibition of growth at 10 µM (SNB-19): 24%; inhibition of growth at 10 µM (LOX IMVI): 26%; inhibition of growth at 10 µM (UO-31): 32%; inhibition of growth at 10 µM (PC-3): 49%; inhibition of growth at 10 µM (DU-145): 25%; inhibition of growth at 10 µM (MCF7): 53%; inhibition of growth at 10 µM (T47D): 39%; inhibition of growth at 10 µM (MDA-MB-468): 38%; IC50 (MV4-11): > 50 µM |
| N#Cc1c(-c2ccc(Cl)cc2)nc2c(c(-c3ccccc3)nn2-c2ccccc2)c1-c1ccc(O)cc1 | 20.8 | 83 | 73 | 59 | 30 | 35 | 73 | 89 | 54 | 58 | 67 | 44 | 47 | 31 | 52 | 43 | 118 | 44 | 60 | 83 | inhibition of growth at 10 µM (HL-60(TB)): 68%; inhibition of growth at 10 µM (K562 [2]): 92%; inhibition of growth at 10 µM (NCI-H23): 52%; inhibition of growth at 10 µM (SF-295): 99%; inhibition of growth at 10 µM (SNB-19): 35%; inhibition of growth at 10 µM (LOX IMVI): 74%; inhibition of growth at 10 µM (SK-MEL-2): 26%; inhibition of growth at 10 µM (A498): 21%; inhibition of growth at 10 µM (UO-31): 70%; inhibition of growth at 10 µM (PC-3): 89%; inhibition of growth at 10 µM (DU-145): 50%; inhibition of growth at 10 µM (MCF7): 81%; inhibition of growth at 10 µM (T47D): 45%; inhibition of growth at 10 µM (BT-549): 38%; inhibition of growth at 10 µM (MDA-MB-468): 69%; IC50 (MV4-11): 25.1 µM |
| Cc1ccc(-c2nc3c(c(-c4ccccc4)nn3-c3ccccc3)c(-c3ccc(O)cc3)c2C#N)cc1 | 8.8 | 79 | 61 | 48 | 12 | 21 | 72 | 85 | 40 | 60 | 59 | 23 | 37 | 18 | 36 | 19 | 47 | 33 | 50 | 62 | inhibition of growth at 10 µM (HL-60(TB)): 68%; inhibition of growth at 10 µM (K562 [2]): 78%; inhibition of growth at 10 µM (NCI-H23): 33%; inhibition of growth at 10 µM (SF-295): 120%; inhibition of growth at 10 µM (SNB-19): 31%; inhibition of growth at 10 µM (LOX IMVI): 88%; inhibition of growth at 10 µM (SK-MEL-2): 22%; inhibition of growth at 10 µM (A498): 56%; inhibition of growth at 10 µM (UO-31): 61%; inhibition of growth at 10 µM (PC-3): 66%; inhibition of growth at 10 µM (DU-145): 40%; inhibition of growth at 10 µM (MCF7): 74%; inhibition of growth at 10 µM (T47D): 39%; inhibition of growth at 10 µM (BT-549): 24%; inhibition of growth at 10 µM (MDA-MB-468): 48%; IC50 (MV4-11): 3.3 µM |
| N#Cc1c(-c2ccco2)nc2c(c(-c3ccccc3)nn2-c2ccccc2)c1-c1ccc(O)cc1 | 4.2 | 45 | 59 | 54 | 19 | 27 | 62 | 18 | 33 | 29 | 39 | 13 | 11 | 16 | 14 | 24 | 18 | 28 | 42 | 11 | inhibition of growth at 10 µM (HL-60(TB)): 78%; inhibition of growth at 10 µM (K562 [2]): 85%; inhibition of growth at 10 µM (SF-295): 34%; inhibition of growth at 10 µM (SK-MEL-2): 30%; inhibition of growth at 10 µM (PC-3): 77%; inhibition of growth at 10 µM (DU-145): 25%; inhibition of growth at 10 µM (MCF7): 53%; inhibition of growth at 10 µM (T47D): 82%; inhibition of growth at 10 µM (BT-549): 36%; IC50 (MV4-11): 13.8 µM |
